Results published in patent US6160166A, “Phosphonated agents and their antiangiogenic and antitumorigenic use” (priority 1999, dated 2000).
Entries after “also recorded” stand apart in the source; their conditions may differ.

How the values were obtained:
[1] = test system: fetal bovine aortic endothelial cells; details: Takano et al., 1994; cited from earlier work
[2] = test system: porcine pulmonary artery macrovascular endothelial cell; test: Porcine pulmonary artery macrovascular endothelial cell growth, total protein and total DNA; format: cell-based
[3] = test system: different cancer cell lines; test: MTT cell proliferation, different cancer cell lines; format: cell-based, human; details: cancer cell lines in vitro
[4] = test system: chick chorioallantoic membrane (CAM); test: Chick egg chorioallantoic membrane (CAM) assay, 6-day, growing vessels: inhibition of angiogenesis; format: in vivo
From the text: The purpose of this experiment was to test the ability of the phosphonic acid agents described above to inhibit angiogenesis. […]
Comparison of the inhibition of angiogenesis by 70 nmol of
suramin or a equimolar amount of a phosphonic acid agents in the
6-day and 11-day chick egg chorioallantoic (CAM) assay.

[5] = test system: angiogenesis in mouse (Matrigel plus bFGF and heparin); details: Pesenti et al. (1992); cited from earlier work
p34cdc2 kinase = p34cdc2 kinase activity and tyrosine phosphorylation; format: biochemical, human
Protocol: The effects of selected phosphonic acid agents on the p34cdc2-related kinase activity are carried out essentially as described by Bojanowski et al. (1994).
Cytoplasmic and nuclear extractions: 100 million cells (HMVEC-1 or HMEC-d) are washed twice with cold PBS and incubated in hypotonic phosphate buffer for 45 min on ice. The cells are then disrupted with a Dounce homogenizer and nuclei separated from the cytoplasmic fraction by centrifugation and extensive washing with hypotonic buffer. The nuclei are incubated for 30 min in the presence of 350 mM NaCl and the nonsoluble nuclear material removed by ultracentrifugation (20 min at 40000 rpm in TL 100 Beckman ultracentrifuge). The protein concentration are adjusted to 1.5 mg/ml, 20% of glycerol are added and the extracts stored at -20° C. […]
Reactions are stopped by placing the samples on ice and spotting 5 μl of the reaction mixture onto P81 phosphocellulose filters (Whatman). Filters are washed three times in 50 mM phosphoric acid, dried and the radioactivity retained on the filters are determined by liquid scintillation (Beckman).
Western blot: the precipitates are electrophoresed in 12.5% 12×12 cm ready-made polyacrylamide gels (Daichi Co.) and the proteins transferred to Immobilon PVDF membranes (Millipore). […] A Pharmacia LKB image master DTS chromoscan are used for band quantification (Bojanowski et al., 1994).

urokinase receptor = details: cited from earlier work
prostate carcinoma cells = details: after 24 hr exposure (Qiao et al., 1994); cited from earlier work
[6] = test system: human microvascular endothelial cells; test: Detachment / toxicity of cultured human microvascular endothelial cells; format: cell-based
DNA synthesis = details: Jindal et al. (1990); cited from earlier work

Which results are given for `Cc1ccc(C(=O)Nc2ccc(S(=O)(=O)O)c3cc(S(=O)(=O)O)cc(S(=O)(=O)O)c23)cc1NC(=O)c1cccc(NC(=O)Nc2cccc(C(=O)Nc3cc(C(=O)Nc4ccc(S(=O)(=O)O)c5cc(S(=O)(=O)O)cc(S(=O)(=O)O)c45)ccc3C)c2)c1` [suramin]?
concentration inhibiting plasminogen activator activity induced by bFGF [1]: higher than 250 μg/ml; effect on total protein and total DNA ([2]; suramin higher than 250 μg/ml): significant dose-related reduction in total protein and total DNA; effect on porcine pulmonary artery macrovascular endothelial cell growth ([2]; up to 100 μg/ml): did not have any significant inhibitory effect; antiproliferative activity, in words [3]: inhibited cell proliferation in a dose-related manner; 6-day CAM % Inhibition of angiogenesis ([4]; 70 nmol or equimolar amount, 6-day CAM): 64%; inhibition of angiogenesis in the 6-day CAM, in words ([4]; 6-day CAM, rapidly growing vessels): showed antiangiogenic activity; also recorded: clearly affected both the growing and established vascular cells; ID50, dose that produces 50% inhibition of angiogenesis ([4]; CAM assay): 75 nmol; inhibition of angiogenesis in vivo, in words [5]: effective inhibitor of angiogenesis in vivo; inhibition of p34cdc2 kinase (p34cdc2 kinase): inhibits p34cdc2 kinase activity in a dose-related manner; p34cdc2 kinase tyrosine phosphorylation / mobility (p34cdc2 kinase; Western blot, anti-phosphotyrosine immunoblot): a difference in p34cdc2 kinase tyrosine phosphorylation; inhibition of urokinase receptor mediated plasminogen activation (urokinase receptor): specific inhibition of the activity of the urokinase receptor mediated cell surface plasminogen activation system; effect on cell cycle (prostate carcinoma cells): slowly arrested in the G1 phase; floating cells ([6]; 24 hr of treatment): a large number of floating cells; time for detection of suramin toxicity on endothelial cells ([6]; concentrations higher than 200 μM): > 12 h; effect on DNA synthesis (DNA synthesis): inhibitory action of suramin on DNA synthesis
